Test results taken from US10441681B2, “Materials and methods for nerve grafting” (University of Florida Research Foundation, Inc., priority 2001, dated 2019).

Assays:
[1] = tested on: rat sciatic nerve; assay: Human-to-rat acellular nerve xenograft model (GAP-43 axonal profiles); type: in vivo; details: 8-day acellular human nerve grafts in rat, 2 host rats
Experimental: In the following experiments, the hypothesis that chondroitinase treatment improves nerve regeneration through acellular human nerve grafts in a rat xenograft model was tested. Subunits (individual fascicles) taken from human nerves were treated en bloc with vehicle or chondroitinase ABC. Ten-mm interpositional nerve grafts were joined to the rat host sciatic nerve by epineurial neurorrhaphy reinforced with fibrin glue. Each of 2 host rats received bilateral grafts, one vehicle-treated and one chondroitinase-treated graft. Regeneration was initially examined after 8 days. Axonal growth was assessed at specified spatial intervals within the graft by scoring GAP-43-immunopositive profiles in transverse sections.

[2] = tested on: CSPG; assay: CSPG neoepitope (Ab1918) immunolabeling of acellular rat sciatic nerve segments treated en bloc; details: acellular rat sciatic nerve segments bathed en bloc in chondroitinase ABC solution for 16 hours
Text: Adult (180-200 g) female SPRAGUE DAWLEY rats (HARLAN, Indianapolis, Ind.) were used as nerve donors and recipient hosts. Donor rats were anesthetized with halothane and decapitated. Sciatic nerves were exposed through a gluteal muscle-splitting incision and isolated free of underlying fascia. A 15-mm nerve segment was excised rostral to the bifurcation into common peroneal and tibial nerves. The segments were rinsed with cold sterile Ringer's solution, stabilized by pinning the ends to a thin plastic support, and transferred to a cryogenic vial. The vials were submerged in liquid nitrogen for 2 minutes and then transferred to a 37° C. water bath for 2 minutes. This freeze/thaw cycle was repeated, yielding acellular nerve grafts that were then stored in liquid nitrogen. On the day before grafting, the nerve grafts were warmed to room temperature and incubated in 100 μl phosphate buffered saline pH 7.4 (PBS) containing 2 units/ml chondroitinase ABC (SIGMA, St. Louis, Mo.) or in PBS (vehicle) only for 16 hours at 37° C. The grafts were rinsed twice with Ringer's and kept on ice prior to use. The chondroitinase ABC preparation was highly purified and stated by the manufacturer to be essentially free of protease activity.
Axonal regeneration was assessed by GAP-43 immunofluorescence and digital image analysis. […]

[3] = tested on: rat sciatic nerve; assay: Axonal regeneration after sciatic nerve transection (neurotmesis) and neurorrhaphic repair; type: in vivo
Experimental: All surgical procedures were performed according to Institutional Animal Care and Use Committee (IACUC) approved protocols. Young adult SPRAGUE DAWLEY rats (HARLAN Indianapolis, Ind.) were deeply anesthetized with xylazine (15 mg/kg, i.m.) followed by ketamine-HCl (110 mg/kg, i.p.). Six animals received bilateral nerve crush injuries. Sciatic nerves were exposed and then crushed with firm pressure for thirty seconds with a DUMONT #5 forceps at a site 4 mm distal to the tendon of the internal obdurator. The crush site was marked with an epineurial suture. In a separate set of experiments, eight rats received bilateral sciatic nerve transection injuries using serrated scissors. The proximal and distal stumps were coated by epineurial neurorrhaphy using 9-0 ETHILON sutures. Fibrin glue (fibrinogen and thrombin) was then applied to stabilize the union. In both injury models, the right sciatic nerves were injected 2-mm distal to the injury with chondroitinase ABC (1 U in 2 μl) (high-purity, protease-free; SIGMA CHEMICAL CO., St. Louis, […].). Left sciatic nerves (with the same injury as the right side) were injected with vehicle alone (0.1% bovine serum albumin in PBS). Muscle incisions were sutured and the skin closed with metal clips. After recovery from the anesthetic, animals were returned to standard housing. Two days (for crush injury) and four days (for transection injury) after surgery, nerves were removed under anesthesia and fixed as described below. One of the eight animals receiving nerve transection and repair was excluded because loss of continuity in one nerve occurred during convalescence.
The hypothesis that chondroitinase treatment improves axonal growth through the site of nerve coaptation was tested. Bilateral neurotmesis was achieved by a scissor cut of the sciatic nerves which were then repaired by epineurial suture and fibrin glue. One nerve was injected with chondroitinase ABC and the contralateral nerve received vehicle alone. Because of the latency of regeneration after nerve transection, axonal growth across the coaptation was examined four days after injury. In control nerves, the ingress of axons occurred mainly in patches and was limited to discrete subsections of the distal nerve; otherwise only a few axons were found scattered throughout the remaining nerve cross-section, as shown in FIG. 14A. The number of axons extending farther into the distal (after 4 days) rapidly diminished and approached zero within 3 mm from the coaptation. In contrast, axon ingress into chondroitinase-treated nerves was more robust and widespread throughout the entire nerve cross-section. In 7/7 animals, the number of axons that entered the distal nerve was greater in the chondroitinase-treated nerve than in the control nerve. […]

chondroitinase ABC
average number of axons (GAP-43-immunopositive profiles) entering grafts vs control grafts [1]: more than three-fold greater
CSPG degradation (Ab1918 neoepitope immunostaining) [2]: thoroughly degraded CSPG side-chains
propensity of axons to regrow within basal laminae of the distal nerve ([3]; GAP-43/laminin double-immunolabeling): unaltered
animals in which the number of axons entering the distal nerve was greater than in the control nerve ([3]; four days after injury): 7/7
score of axons immediately distal to the coaptation vs control nerves ([3]; four days after transection and repair, 1 U in 2 μl injected, n=7): two-fold greater
animals with increases greater than 3.5-fold ([3]; score of axons immediately distal to the coaptation, four days): 3/7
